Source: US8597875B2, “Method for diagnosing liver toxicity with sex specific biomarkers” (BASF SE, priority 2008, dated 2013)

What was measured:
male rats = assay: Plasma metabolite profiling (GC-MS/LC-MS) for liver toxicity markers, 28-day gavage study, male rats; type: in vivo, rat; details: Table 3, male rats
Description: (§1) A group of each 5 male and female rats was dosed once daily with the indicated compounds (see tables below) at 10 and 100 mg/kg body weight per gavage over 28 days. Additional groups of each 5 male and female animals served as controls. Before starting the treatment period, animals, which were 62-64 days old when supplied, were acclimatized to the housing and environmental conditions for 7 days. All animals of the animal population were kept under the same constant temperature (20-24±3° C.) and the same constant humidity (30-70%). Each animal of the animal population was kept in a separate cage. The animals of the animal population are fed ad libitum. The food to be used was be essentially free of chemical or microbial contaminants. Drinking water was also offered ad libitum. Accordingly, the water was be free of chemical and microbial contaminants as laid down in the European Drinking Water Directive 98/83/EG. The illumination period was 12 hours light followed by 12 hours darkness (12 hours light, from 6:00 to 18:00, and 12 hours darkness, from 18:00 to 6:00).
(§2) In the morning of day 7, 14, and 28, blood was taken from the retroorbital venous plexus from fasted anaesthetized animals. From each animal, 1 ml of blood was collected with EDTA as anticoagulant. The samples were be centrifuged for generation of plasma. All plasma samples were covered with a N2 atmosphere and then stored at −80° C. until analysis.
(§3) For mass spectrometry-based metabolite profiling analyses plasma samples were extracted and a polar and a non-polar fraction was obtained. For GC-MS analysis, the non-polar fraction was treated with methanol under acidic conditions to yield the fatty acid methyl esters. Both fractions were further derivatised with O-methyl-hydroxyamine hydrochloride and pyridine to convert Oxo-groups to O-methyloximes and subsequently with a silylating agent before analysis. In LC-MS analysis, both fractions were reconstituted in appropriate solvent mixtures. HPLC was performed by gradient elution on reversed phase separation columns. For mass spectrometric detection metanomics proprietary technology was applied which allows target and high sensitivity MRM (Multiple Reaction Monitoring) profiling in parallel to a full screen analysis.
(§4) Following comprehensive analytical validation steps, the data for each analyte were normalized against data from pool samples. These samples were run in parallel through the whole process to account for process variability. The significance of treatment group values specific for sex, dose group and metabolite was determined by comparing means of the treated groups to the means of the respective untreated control groups using WELCH-test. Normalized treatment group values and their significance were fed into a database for further statistics and data mining processes.
(§5) The changes of the group of plasma metabolites being indicative for liver toxicity after treatment of the rats are shown in the following tables: […]

female rats = assay: Plasma metabolite profiling (GC-MS/LC-MS) for liver toxicity markers, 28-day gavage study, female rats; type: in vivo, rat; details: for Glycerol-3-Phosphate, polar fraction, change of plasma metabolite / Glucose, change of plasma metabolite / Cholesterol, change of plasma metabolite: female rats
Description: as §1, §2, §3, §4, §5

[1] = Table 4, female rats, fh7 (day 7)
[2] = Table 4, female rats, fh14 (day 14)
[3] = Table 4, female rats, fh28 (day 28)

## CC(=O)Nc1ccc(O)cc1 [N-Acetyl-p-Aminophenol]
Male rats; mh7 (day 7)
  4-Hydroxyphenylpyruvic acid, change of plasma metabolite: 3.04
  18:1 Lyso PC, change of plasma metabolite: 1.02
  Glycerol-3-Phosphate, polar fraction, change of plasma metabolite: 1.41
  alpha-Tocopherol, change of plasma metabolite: 1.21
Male rats; mh14 (day 14)
  4-Hydroxyphenylpyruvic acid, change of plasma metabolite: 4.89
  4-Hydroxysphinganine, change of plasma metabolite: 1.61
  18:1 Lyso PC, change of plasma metabolite: 1.16
  Glycerol-3-Phosphate, polar fraction, change of plasma metabolite: 1.54
  Phosphatidylcholine No 01, change of plasma metabolite: 1.21
Female rats; [1]
  Behenic acid (C22:0), change of plasma metabolite: 1.11
  Coenzyme Q9, change of plasma metabolite: 2.21
  Eicosatrienoic acid No 01, change of plasma metabolite: 1.15
  Glycerol, lipid fraction, change of plasma metabolite: 1.54
  Glycerolphosphate, lipid fraction, change of plasma metabolite: 1.13
  Heptadecanoic acid (C17:0), change of plasma metabolite: 1.31
  Linoleic acid (C18:cis[9,12]2), change of plasma metabolite: 1.43
  Nervonic acid (C24:1), change of plasma metabolite: 1.19
  Palmitic acid (C16:0), change of plasma metabolite: 1.16
  Phosphatidylcholine No 01, change of plasma metabolite: 1.30
  Sphingolipids (5-Methoxysphingosine), change of plasma metabolite: 1.31
  Sphingolipids (erythro-Sphingosine), change of plasma metabolite: 1.11
Female rats; [2]
  14-Methylhexadecanoic acid, change of plasma metabolite: 1.20
  Behenic acid (C22:0), change of plasma metabolite: 1.39
  Coenzyme Q9, change of plasma metabolite: 1.39
  DAG (C18:1, C18:2), change of plasma metabolite: 1.63
  Eicosatrienoic acid No 01, change of plasma metabolite: 1.91
  Glycerol, lipid fraction, change of plasma metabolite: 1.56
  Heptadecanoic acid (C17:0), change of plasma metabolite: 1.34
  Linoleic acid (C18:cis[9,12]2), change of plasma metabolite: 1.82
  Nervonic acid (C24:1), change of plasma metabolite: 1.35
  Palmitic acid (C16:0), change of plasma metabolite: 1.50
  Phosphatidylcholine No 01, change of plasma metabolite: 1.34
  Sphingolipids (5-Methoxysphingosine), change of plasma metabolite: 1.41
  Sphingolipids (erythro-Sphingosine), change of plasma metabolite: 1.29
  TAG No 01, change of plasma metabolite: 2.93
Female rats; [3]
  14-Methylhexadecanoic acid, change of plasma metabolite: 1.68
  Coenzyme Q9, change of plasma metabolite: 1.19
  DAG (C18:1, C18:2), change of plasma metabolite: 1.86
  Eicosanoic acid (C20:0), change of plasma metabolite: 1.73
  Eicosatrienoic acid No 01, change of plasma metabolite: 2.08
  Glycerol, lipid fraction, change of plasma metabolite: 2.04
  Glycerolphosphate, lipid fraction, change of plasma metabolite: 1.82
  Heptadecanoic acid (C17:0), change of plasma metabolite: 1.64
  Linoleic acid (C18:cis[9,12]2), change of plasma metabolite: 2.68
  Palmitic acid (C16:0), change of plasma metabolite: 2.03
  TAG No 01, change of plasma metabolite: 3.85
Female rats; Table 4, first listing (r8), fh7 (day 7)
  Glycerol-3-Phosphate, polar fraction, change of plasma metabolite: 1.68
Female rats; Table 4, first listing (r8), fh14 (day 14)
  Glycerol-3-Phosphate, polar fraction, change of plasma metabolite: 1.18
Female rats; Table 4, first listing (r10), fh7 (day 7)
  Glucose, change of plasma metabolite: 1.25
Female rats; Table 4, first listing (r10), fh28 (day 28)
  Glucose, change of plasma metabolite: 1.17
Female rats; Table 4, first listing (r14), fh28 (day 28)
  Cholesterol, change of plasma metabolite: 1.41
Female rats; Table 4, second listing (r26), fh7 (day 7)
  Cholesterol, change of plasma metabolite: 1.21
Female rats; Table 4, second listing (r26), fh14 (day 14)
  Cholesterol, change of plasma metabolite: 1.42
Female rats; Table 4, second listing (r26), fh28 (day 28)
  Cholesterol, change of plasma metabolite: 1.74
Female rats; Table 4, second listing (r27), fh28 (day 28)
  Glucose, change of plasma metabolite: 1.04
Female rats; Table 4, second listing (r28), fh7 (day 7)
  Glycerol-3-Phosphate, polar fraction, change of plasma metabolite: 1.93
Female rats; Table 4, second listing (r28), fh14 (day 14)
  Glycerol-3-Phosphate, polar fraction, change of plasma metabolite: 1.35
Female rats; Table 4, second listing (r28), fh28 (day 28)
  Glycerol-3-Phosphate, polar fraction, change of plasma metabolite: 1.20
